Data on one molecule can be found in PubChem BioAssay AID1671244.

For this experiment, the target named is Casein kinase I isoform delta (Homo sapiens) (UniProt P48730). Put plainly: inhibition of CK1 delta activity – biochemical, Z'-LYTE, FRET, direct format, dose response (AID 1671244). To be noted: recombinant CK1 delta.

Each structure is given as a SMILES string.

Casein kinase I isoform delta (Homo sapiens), sequence (P48730 whole entry, looked up, canonical isoform): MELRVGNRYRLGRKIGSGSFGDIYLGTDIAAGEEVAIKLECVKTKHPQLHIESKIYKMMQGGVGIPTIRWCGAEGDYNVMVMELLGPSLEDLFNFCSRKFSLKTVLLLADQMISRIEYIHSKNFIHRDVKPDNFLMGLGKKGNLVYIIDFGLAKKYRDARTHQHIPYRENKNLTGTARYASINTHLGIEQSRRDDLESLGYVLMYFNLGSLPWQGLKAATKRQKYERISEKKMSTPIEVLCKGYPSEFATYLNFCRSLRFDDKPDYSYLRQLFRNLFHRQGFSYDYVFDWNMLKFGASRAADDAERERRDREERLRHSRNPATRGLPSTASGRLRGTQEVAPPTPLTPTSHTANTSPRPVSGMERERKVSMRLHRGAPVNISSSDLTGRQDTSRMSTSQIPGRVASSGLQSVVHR

One may read the IC50 as the concentration that inhibits the measured activity by half. Turning to `Brc1c(Br)c(Br)c2n[nH]nc2c1Br`, the IC50 is 3.68 µM.
